The results in this text go back to ChEMBL document CHEMBL1201862, “PubChem BioAssay data set” (2004).

Among the test systems are SR; BT-549; OVCAR-3; TK-10; Malme-3M; MDA-MB-435; OVCAR-8; KM12; M14; CCRF-CEM; EKVX; NCI-H460; HL-60; UACC-62; Hs-578T; T47D; MCF7; HT-29; SNB-19.
What all share (experiment): NCI tumour cell line growth inhibition, 48 h

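Grown in 96-well plates, cells were treated for 48 hours with each compound at five concentrations. Insufficient inhibition: endpoint recorded as highest concentration tested. Here, GI50 denotes the concentration required for 50% inhibition of growth.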 Active and inactive are the calls of the source. No stated cut-off is given here; in the data, active = GI50 up to about 1.1 µM and inactive = higher. A value given as a limit tells only on which side of the number the result lay.

As to `Cc1cc(C)c(S(=O)(=O)N(CCCCCCN)OCCCON(CCCCCCN)S(=O)(=O)c2c(C)cc(C)cc2C)c(C)c1`, the GI50 in the assay with SR was 2.51 µM (inactive); in the assay on BT-549, 1.65 µM (inactive); in the assay with OVCAR-3 it was 1.76 µM (inactive); with TK-10 it was 1.58 µM (inactive); with Malme-3M it was 1.45 µM (inactive); in the assay with MDA-MB-435, 2.13 µM (inactive). Further, the GI50 in the assay with OVCAR-8 was 1.79 µM (inactive); with KM12, 1.9 µM (inactive); in the assay with M14 it was 1.66 µM (inactive); in the assay on CCRF-CEM, 2.29 µM (inactive); in the assay with EKVX it was 1.79 µM (inactive); in the assay with NCI-H460 it was 1.64 µM (inactive). Moreover, the GI50 with HL-60 was 2.15 µM (inactive); with UACC-62, 1.74 µM (inactive); in the assay on Hs-578T, 2.11 µM (inactive); in the assay on T47D it was 1.91 µM (inactive); in the assay with MCF7, 1.91 µM (inactive); with HT-29, 1.66 µM (inactive). The GI50 with SNB-19 was 1.62 µM (inactive).

For `Nc1nc(N)nc(CCCCc2nc(N)nc(N)n2)n1`, the GI50 in the assay on SR, in the assay with BT-549, in the assay on OVCAR-3, with TK-10, in the assay with Malme-3M and in the assay on MDA-MB-435 was > 100 µM (inactive) throughout. The GI50 in the assay on OVCAR-8, with KM12, with M14, with CCRF-CEM, in the assay with EKVX and in the assay on NCI-H460 was > 100 µM (inactive) each time. Moreover, the GI50 with HL-60, with UACC-62, in the assay with Hs-578T, in the assay on T47D, with MCF7 and in the assay on HT-29 was > 100 µM (inactive) each time. Also, the GI50 in the assay with SNB-19 was > 100 µM (inactive).

Take `CCCCC/C(=N\c1[nH]nnc1C(N)=O)OCC`: the GI50 in the assay with SR, in the assay on BT-549, in the assay with OVCAR-3, in the assay on TK-10, with Malme-3M and in the assay on MDA-MB-435 was > 100 µM (inactive) throughout. In addition, the GI50 with OVCAR-8, in the assay on KM12, in the assay on M14, with CCRF-CEM, in the assay on EKVX and in the assay on NCI-H460 was > 100 µM (inactive) throughout. Further, the GI50 in the assay with HL-60, in the assay on UACC-62, with Hs-578T, in the assay with T47D, in the assay with MCF7 and with HT-29 was > 100 µM (inactive) each time. Besides, the GI50 in the assay with SNB-19 was > 100 µM (inactive).

For `CC(=O)O[C@H]1CC[C@@]2(C)C(=CC[C@H]3[C@@H]4C[C@H](N5CCCC5)[C@H](OC(C)=O)[C@@]4(C)CC[C@@H]32)C1`, the GI50 with SR was > 100 µM (inactive); in the assay with BT-549 it was > 100 µM (inactive); in the assay on OVCAR-3 it was > 86.3 µM (inactive); with TK-10, > 100 µM (inactive); in the assay on Malme-3M it was 33.7 µM (inactive); with MDA-MB-435, 32 µM (inactive). In addition, the GI50 was > 100 µM (inactive) in the assay on OVCAR-8; > 100 µM (inactive) with KM12; 18.2 µM (inactive) in the assay on M14; > 67.8 µM (inactive) in the assay with CCRF-CEM; > 100 µM (inactive) with EKVX; > 100 µM (inactive) in the assay on NCI-H460. Also, the GI50 is > 45.7 µM (inactive) in the assay on HL-60; > 56.1 µM (inactive) with UACC-62; > 100 µM (inactive) in the assay with Hs-578T; > 100 µM (inactive) in the assay with T47D; > 100 µM (inactive) with MCF7; 21.7 µM (inactive) with HT-29. Also, the GI50 with SNB-19 is > 100 µM (inactive).

`COc1ccc(C2=Cc3nc2c(-c2ccccc2)c2ccc([nH]2)c(-c2ccccc2)c2nc(c(-c4ccccc4)c4ccc([nH]4)c3-c3ccccc3)C=C2)cc1`: the GI50 in the assay with SR, with BT-549, with OVCAR-3, in the assay with TK-10, with Malme-3M and in the assay on MDA-MB-435 was > 100 µM (inactive) in each case. Also, the GI50 in the assay with OVCAR-8, in the assay with KM12, with M14, with CCRF-CEM, with EKVX and in the assay on NCI-H460 was > 100 µM (inactive) throughout. For the same compound, the GI50 in the assay on HL-60, in the assay on UACC-62, in the assay on Hs-578T, in the assay with T47D, in the assay with MCF7 and with HT-29 was > 100 µM (inactive) in each case. Also, the GI50 in the assay on SNB-19 was 48.2 µM (inactive).

Consider `Cn1c([C@H](C#N)C(=O)c2cc(O)ccc2[N+](=O)[O-])nc2ccccc21`, for which the GI50 in the assay with SR was 5.98 µM (inactive); in the assay on BT-549, 16 µM (inactive); in the assay with OVCAR-3, > 100 µM (inactive); in the assay with TK-10 it was > 100 µM (inactive); in the assay with Malme-3M, 17.2 µM (inactive); in the assay with MDA-MB-435 it was 9.51 µM (inactive). For the same compound, the GI50 with OVCAR-8 was > 100 µM (inactive); in the assay on KM12 it was > 100 µM (inactive); with M14, > 100 µM (inactive); in the assay with CCRF-CEM it was 10.6 µM (inactive); with EKVX it was > 100 µM (inactive); with NCI-H460 it was > 100 µM (inactive). Moreover, the GI50 with HL-60, with UACC-62, in the assay with Hs-578T, with T47D, in the assay on MCF7 and with HT-29 was > 100 µM (inactive) each time. Moreover, the GI50 with SNB-19 is > 100 µM (inactive).

With `COC(=O)[C@@H]1COC(C(C)(C)C)N1C(=O)C(c1ccccc1)c1ccccc1` (stereo partly drawn), the GI50 in the assay on SR is 0.446 µM (active); in the assay on BT-549, > 100 µM (inactive); in the assay on OVCAR-3, 39.2 µM (inactive); in the assay on TK-10 it was 50.4 µM (inactive); with Malme-3M, > 100 µM (inactive); with MDA-MB-435, 36.7 µM (inactive). Also, the GI50 in the assay on OVCAR-8 was 44.1 µM (inactive); in the assay with KM12, 43.6 µM (inactive); with M14 it was 52 µM (inactive); in the assay on CCRF-CEM, 26.7 µM (inactive); with EKVX, 55.7 µM (inactive); in the assay on NCI-H460, 40.3 µM (inactive). The GI50 was 45.3 µM (inactive) in the assay with HL-60; 44.1 µM (inactive) in the assay on UACC-62; 55.5 µM (inactive) in the assay on Hs-578T; 62.8 µM (inactive) in the assay with T47D; 64.3 µM (inactive) in the assay with MCF7; 55.8 µM (inactive) in the assay with HT-29. For the same compound, the GI50 in the assay with SNB-19 is 40.9 µM (inactive).
